System: HBV
Experiment: HepAD38 antiviral assay: reduction of viral product accumulation (virion DNA by qPCR, HBsAg or HBeAg by ELISA)
Assay type: cell-based, hepatitis B virus
Conditions: Hepatitis B virus, 120 h; HepAD38 cells, five days after compound addition; 50% reduction of viral product vs no drug controls; read-out: HepAD38 EC50
Protocol: Methods: HepAD38 cells are maintained as previously reported (Ladner et al, Antimicrob. Agents Chemother. 1997, […], 1715). Briefly, cells are passaged upon attaining confluency in DMEM/F12 media in the presence of 10% FBS, Penn/Strep, 250 μg/mL G418, and 1 ug/ml tetracycline. Novel compounds are screened by first washing cells three times with PBS to remove tetracycline, and plating in 96 well plates at 35,000 cells/well. Compounds dissolved in DMSO are then diluted 1:200 into wells containing cells. Five days after compound addition, material is harvested for analysis. For an extended 8 days analysis, cells are plated and treated as described above, but media and compound are refreshed on d2 and d5 post initial treatment.
On harvest day, virion DNA is obtained by lysing with Sidestep Lysis and Stabilization Buffer and then quantified via quantitative real time PCR. Commercially available ELISA kits are used to quantitate the viral proteins HBsAg (Alpco) or HbeAg (US Biological) by following the manufacturer's recommended protocol after diluting samples to match the linear range of their respective assays.

SMILES	EC50 [µM]
O=C(Nc1ccc(F)c(F)c1)c1ccc(Cl)c(S(=O)(=O)[C@H]2CC3CCC(C2)[C@]3(O)[C@@H](O)c2ccc(F)cn2)c1 (single isomer, unassigned) [Example 291a]	< 0.104
O=C(Nc1ccc(F)c(F)c1)c1ccc(Cl)c(S(=O)(=O)[C@H]2CC3CCC(C2)[C@]3(O)[C@H](O)c2ccc(F)cn2)c1 (single isomer, unassigned) [Example 291b]	< 0.104
O=C(CCCO)NC[C@]1(O)C2CCC1C[C@@H](S(=O)(=O)c1cc(C(=O)Nc3cc(F)c(F)c(F)c3)ccc1Cl)C2 [Example 2]	0.1 to 0.2
NS(=O)(=O)OC[C@]1(O)CC2CC[C@@H](C1)[C@H]2S(=O)(=O)c1cc(C(=O)Nc2cc(F)c(F)c(F)c2)ccc1Cl [Example 3]	< 0.104
O=C(Nc1ccc(F)c(F)c1)c1ccc(Cl)c(S(=O)(=O)[C@H]2C3CC[C@H]2C[C@](O)(c2ncc[nH]2)C3)c1 [Example 6]	< 0.104
COC(=O)N1C[C@H](O)C[C@H]1C(=O)NC[C@]1(O)C2CCC1C[C@@H](S(=O)(=O)c1cc(C(=O)Nc3cc(F)c(F)c(F)c3)ccc1Cl)C2 [Example 8]	> 0.2
O=C(Nc1cc(F)c(F)c(F)c1)c1ccc(Cl)c(S(=O)(=O)[C@H]2CC3CCC(C2)[C@]3(O)CNC(=O)[C@H]2CCCO2)c1 [Example 15]	< 0.104
O=C(Nc1cc(F)c(F)c(F)c1)c1ccc(Cl)c(S(=O)(=O)[C@H]2CC3CCC(C2)[C@]3(O)CNC(=O)C2CC=CCC2)c1 (some centres unmarked) [Example 18]	< 0.104
O=C(Nc1cc(F)c(F)c(F)c1)c1ccc(Cl)c(S(=O)(=O)C2CC3CCC(C2)C3C(O)C(O)CO)c1 (centres unmarked) [Example 20]	< 0.104
CC(C)(O)/C=C\[C@]1(O)C2CCC1C[C@@H](S(=O)(=O)c1cc(C(=O)Nc3cc(F)c(F)c(F)c3)ccc1Cl)C2 [Example 21]	< 0.104
O=C(Nc1cc(F)c(F)c(F)c1)c1ccc(Cl)c(S(=O)(=O)[C@@H]2CC3CC[C@@H](C2)[C@@]3(O)CNC(=O)C2CC=CC2)c1 [Example 22]	< 0.104
COC(=O)N1CCCC1C(=O)NC[C@@]1(O)C2CC[C@H]1C[C@H](S(=O)(=O)c1cc(C(=O)Nc3cc(F)c(F)c(F)c3)ccc1Cl)C2 (some centres unmarked) [Example 23]	< 0.104
O=C(Nc1cc(F)c(F)c(F)c1)c1ccc(Cl)c(S(=O)(=O)[C@@H]2CC3CC[C@@H](C2)[C@@]3(O)CNC(=O)[C@@H]2C[C@@H](O)[C@@H](O)C2)c1 [Example 24]	> 0.2
CS(=O)(=O)NCC(O)[C@]1(O)C2CCC1C[C@@H](S(=O)(=O)c1cc(C(=O)Nc3cc(F)c(F)c(F)c3)ccc1Cl)C2 (some centres unmarked) [Example 26]	< 0.104
NC(=O)C[C@H](N)C(=O)NC[C@]1(O)C2CCC1C[C@@H](S(=O)(=O)c1cc(C(=O)Nc3cc(F)c(F)c(F)c3)ccc1Cl)C2 [Example 27]	> 0.2
CC1(C)O[C@H]2[C@H](CO[C@@H]2C(=O)NC[C@@]2(O)C3CC[C@H]2C[C@H](S(=O)(=O)c2cc(C(=O)Nc4cc(F)c(F)c(F)c4)ccc2Cl)C3)O1 [Example 28]	< 0.104
O=C(Nc1cc(F)c(F)c(F)c1)c1ccc(Cl)c(S(=O)(=O)[C@@H]2CC3CC[C@@H](C2)[C@@]3(O)CNC(=O)[C@H]2OCC(O)[C@@H]2O)c1 (some centres unmarked) [Example 29]	> 0.2
C[C@]1(O)C2CCC1C[C@@H](S(=O)(=O)c1cc(C(=O)Nc3ccc(F)c(Br)c3)ccc1Cl)C2 [Example 30]	< 0.104
C[C@@]1(O)C2CC[C@H]1C[C@H](S(=O)(=O)c1cc(C(=O)Nc3ccc(F)c(C(F)(F)F)c3)ccc1Cl)C2 [Example 31]	0.1 to 0.2
COC(=O)C[C@]1(O)C2CCC1C[C@@H](S(=O)(=O)c1cc(C(=O)Nc3cc(F)c(F)c(F)c3)ccc1Cl)C2 [Example 32]	> 0.2
O=C(Nc1cc(F)c(F)c(F)c1)c1ccc(Cl)c(S(=O)(=O)[C@H]2CC3CCC(C2)[C@]3(O)CO[C@H]2C[C@@H](O)[C@@H](O)C2)c1 [Example 34]	< 0.104
O=C(Nc1cc(F)c(F)c(F)c1)c1ccc(Cl)c(S(=O)(=O)[C@H]2CC3CCC(C2)[C@]3(O)CO[C@@H]2C[C@@H](O)[C@@H](O)C2)c1 [Example 35]	< 0.104
C[C@]1(O)C2CCC1C[C@@H](S(=O)(=O)c1cccc(C(=O)Nc3cc(F)c(F)c(F)c3)c1)C2 [Example 37]	0.1 to 0.2
O=C(Nc1cc(F)c(F)c(F)c1)c1ccc(Cl)c(S(=O)(=O)[C@H]2CC3CCC(C2)[C@]3(O)CNS(=O)(=O)CC(O)CO)c1 (some centres unmarked) [Example 40]	> 0.2
O=C(Nc1cc(F)c(F)c(F)c1)c1ccc(Cl)c(S(=O)(=O)[C@H]2CC3CCC(C2)[C@]3(O)[C@H](O)[C@@H](O)CO)c1 [Example 42]	< 0.104
CC(C)c1cc(NC(=O)c2ccc(Cl)c(S(=O)(=O)[C@H]3CC4CCC(C3)[C@@]4(C)O)c2)ccc1F [Example 43]	> 0.2

— patent US11596611B2, “Hepatitis B antiviral agents” (ENANTA PHARMACEUTICALS, INC., priority 2017, dated 2023)
